Laboratory results reported in patent publication US11918645B2, “Vaccines against hepatitis B virus” (priority 2012, dated 2024).

Assays:
BALB/c mice = assay: Immunogenicity in mice, IFNγ ELISpot of splenocytes, FP02.1 vs NP02.1 (Example 6); format: in vivo; settings: mice immunised with FP02.1 or NP02.1, restimulation 5 μg/mL/peptide, FIG. 15
Method: The immunogenicity in mice of FP02.1 (containing nine fluorocarbon-conjugated peptides) was compared to NP02.1 (containing nine equivalent unconjugated peptides).
Alternatively, splenocytes were stimulated in vitro with 5 μg/mL/peptide of nine individual peptides for 18 hours in an ELISpot assay. The number of IFNγ+ spot forming cells (SFC) was counted. Plates then were washed with PBS, incubated with an IFNγ detection peroxidase-labelled antibody, followed by a substrate, according to the manufacturer's instructions.

[1] = molecular target: T1, HLA-DR13 (α1*01:01;β1*13:01) (Homo sapiens, UniProt P01903+P01911, A100E/A169T/K41T/L162R/M171V/P40S/Q125H/Q178H/Q39Y/Q99D/R42S/S66N/W38E/Y61H); assay: ProImmune REVEAL MHC class II binding assay of long peptides; settings: percentage of the signal of the positive control peptide; positive binding score >=15%
T1 construct: purchased ProImmune
From the text: (§1) The highly frequent HLA class II alleles HLA-DR1 (α1*01:01;β1*01:01), HLA-DR15 (α1*01:01;β1*15:01), HLA-DR3 (α1*01:01;β1*03:01), HLA-DR4 (α1*01:01;β1*04:01), HLA-DR11 (α1*01:01;β1*11:01), HLA-DR13 (α1*01:01;β1*13:01), and HLA-DR7 (α1*01:01;β1*07:01) were selected. Each peptide was given a score relative to the positive control peptide, which is a known T-cell epitope.

[2] = tested on: HLA-DR3 (α1*01:01;β1*03:0); assay: as above; parameters: species or system human; settings: percentage of the signal of the positive control peptide; positive binding score >=15%
From the text: (§2) The highly frequent HLA class II alleles HLA-DR1 (α1*01:01;β1*01:01), HLA-DR15 (α1*01:01;β1*15:01), HLA-DR3 (α1*01:01;β1*03:01), HLA-DR4 (α1*01:01;β1*04:01), HLA-DR11 (α1*01:01;β1*11:01), HLA-DR13 (α1*01:01;β1*13:01), and HLA-DR7 (α1*01:01;β1*07:01) were selected. Each peptide was given a score relative to the positive control peptide, which is a known T-cell epitope. The score of the test peptide is reported quantitatively as a percentage of the signal generated by the positive control peptide, and the peptide is indicated as having a putative pass or fail result. Good binders are considered to be those peptides with scores >=15% of the positive control as defined by Proimmune.

[3] = tested on: HLA-DR1 (α1*01:01;β1*01:01); assay: as above; parameters: species or system human; settings: percentage of the signal of the positive control peptide; positive binding score >=15%
From the text: as §2

[4] = tested on: HLA-DR11 (α1*01:01;β1*11:01); assay: as above; parameters: species or system human; settings: percentage of the signal of the positive control peptide; positive binding score >=15%
From the text: as §1

HLA class II alleles = assay: ProImmune REVEAL MHC class II binding assay, summary over the seven alleles; parameters: species or system human; settings: number of class II alleles for which positive binding (score >=15%) was detected
From the text: as §2

T1 sequence (P01903 26-216, other chains not shown): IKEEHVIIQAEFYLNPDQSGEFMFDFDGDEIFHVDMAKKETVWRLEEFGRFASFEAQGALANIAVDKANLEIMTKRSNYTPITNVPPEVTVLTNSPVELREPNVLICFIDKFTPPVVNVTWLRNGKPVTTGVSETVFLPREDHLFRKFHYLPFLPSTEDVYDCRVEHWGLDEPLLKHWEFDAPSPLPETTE

Substance | IFNγ response of splenocytes to each individual peptide component (BALB/c mice) | IFNγ response of splenocytes to each individual peptide component (BALB/c mice; listed as P113) | binding score, HLA-DR13 (α1*01:01;β1*13:01) [1] [%] | binding score, HLA-DR3 (α1*01:01;β1*03:0) [2] [%] | binding score, HLA-DR1 (α1*01:01;β1*01:01) [3] [%] | binding score, HLA-DR11 (α1*01:01;β1*11:01) [4] [%] | Number of allele (a) (HLA class II alleles)
NP113: unconjugated HBV long peptide, polymerase region 96-130 of virtual HBV proteome (VGPLTVNEKRRLKLIMPARFYPNVTKYLPLDKGIK; HBV CONSENSUS SEQUENCE) | immune responses were dominated by four out of the 9 peptides contained in the vaccine | only observed with the formulation containing the fluorocarbon-conjugated peptides | 0.00 | 49.98 | 54.44 |  | 
NP753(K): unconjugated HBV long peptide, core KK + 738-770 (S to T at 743) + KKK (KKKEFGATVELLSFLPSDFFPSVRDLLDTASALYRKKK; HBV CONSENSUS SEQUENCE) |  |  | 0.00 | 0.00 | 0.11 | 1.51 | 0
NP151: unconjugated HBV long peptide, polymerase region 134-168 (PEHVVNHYFQTRHYLHTLWKAGILYKRETTRSASF; HBV CONSENSUS SEQUENCE) | immune responses were dominated by four out of the 9 peptides contained in the vaccine |  | 0.00 | 0.00 | 14.59 |  | 
